According to patent US20040023362A1, “Degradation of polycyclic aromatic hydrocarbons by microorganisms” (priority 2000, published 2004):
“Also recorded” adds a separate entry of the source.

Legend:
[1] = test system: S. maltophilia VUN 10,010; assay: Pyrene degradation and growth of VUN 10,010 in the presence of surfactants; format: cell-based, Stenotrophomonas maltophilia; details: for effect on growth of VUN 10,010 on pyrene (protein analysis, MPN): surfactant 5-10 g l^−1; for effect on pyrene degradation by VUN 10,010: surfactant 5-10 g l^−1 (up to 10 g l^−1)
Method: Each surfactant was added to the medium to achieve the following concentrations: 0.5 g l^−1 (▴), 5.0 g l^−1 (●) and 10.0 g l^−1 (▪). The control cultures ( ) contained no added surfactant. The incubations were performed in BSM at 30° C., using low initial cell populations.
Growth was monitored by measuring protein concentration and viable cell numbers at regular intervals up to 10 days. Viable cell numbers were determined by most probable number (MPN) estimates (Collin et al, 1989).
Three types of controls were used: cultures containing no surfactant, uninoculated broth, and killed cell cultures (0.2% HgCl2). All cultures were incubated at 30° C./175 rpm. Bacterial growth was determined by MPN estimates.

[2] = Surfactant critical micelle concentration, duNouy ring tensitometer; format: physicochemical; details: for CMC in BSM compared with deionized (distilled) water: 30° C.; for CMC: in BSM
Method: Experiments to evaluate surfactant CMC values were conducted at 30° C. using a duNouy ring tensitometer (Cambridge Instrument Company Limited, London, England). All glassware was cleaned with chromic acid solution, and the tensitometer ring was cleaned with acetone and heated to redness in a gas flame. Various concentrations of surfactant solutions were prepared in deionized water and BSM. Surfactant solutions were allowed to equilibrate for approximately 2 h before measurements were made. Measurements were an average of five readings (SD<0.3%). CMC value was taken from the plot of surface tension versus log surfactant concentration, as described by Kile and Chiou (1989).

strain VUN 10,010 = assay: Agar (well) diffusion toxicity test of surfactants; format: cell-based, Stenotrophomonas maltophilia; details: concentrations of 5 and 10 g l^−1
Method: The agar diffusion method was used to determine the effects of surfactants on growth by observing zones of inhibition on peptone-glucose agar (Cserhali et al, 1991). The medium contained per litre: 5 g peptone, 5 g glucose, 0.5 g NaCl, 3 g beef extract, 20 g agar; the pH was adjusted to 7.0 and sterilized by autoclaving for 15 min at 121° C. Bacterial cultures were mixed with the molten medium (25 ml) to obtain an inoculum size of approximately 10^8 cells ml^−1, and this was poured into a Petri dish. Once the cell-medium mixture had solidified, 7 mm diameter holes were made, and 150 μl of aqueous surfactant solutions was added (0.1-10.0 g l^−1). Growth inhibition zones were observed after 48-72 h at 30° C.

[3] = data from the manufacturers; cited from earlier work
physchem = assay: physchem
Method: PAHs (approximately 1 g l^−1) were added to a 10 ml solution of BSM plus surfactant in a 30 ml glass reaction vial, which was sealed with an aluminium cap fitted with a septum. Surfactant concentrations corresponded to levels above, below, and at the CMC, and replicates were set up to allow sampling in duplicate at different time intervals up to 72 h. Incubation was performed at 30° C. and 175 rpm. The entire vial contents was collected by syringe and expressed through a preconditioned membrane filter (0.22 μm, Sartorius AG, Germany) to remove solid-phase crystalline PAH while allowing solubilized PAH in the aqueous phase and micellar pseudophase to pass into sterile vials. The filter was preconditioned by purging the filter with a few mls of sample solution to allow sorption saturation of the internal surfaces of the syringe, filter and needle. The filtrates were extracted with dichloromethane (DCM), and the concentration of solubilized PAH was determined by GC-FID as described below.
The effectiveness of a particular surfactant in solubilizing a given PAH can be assessed by determining the molar solubilization ratio (MSR) and micelle/water partition coefficient (Km). In our study, the concentrations of added PAHs were well in excess of aqueous saturation concentrations; therefore the MSR value of each compound can be obtained from the slope of the curve generated from a plot of PAH concentration versus surfactant concentration for surfactant concentrations above CMC (Edwards et al, 1991).
Km values can be determined from the measured MSR values according to the following equation (Edwards et al, 1991): [formula]
^SPAH, CMC is the apparent solubility of the PAH (mol l^−1) at surfactant CMC. VW is the molar volume of water at 30° C. ie. 0.018015 l mol^−1(Rogers and Mayhew, 1981).

[4] = Ghosh et al (1995); medium and temperature not specified; cited from earlier work

| Substance | effect on growth of VUN 10,010 on pyrene (protein analysis, MPN) [1] | effect on pyrene degradation by VUN 10,010 [1] | CMC in BSM compared with deionized (distilled) water [2] | CMC [2] | effect on microbial growth (strain VUN 10,010) | HLB (hydrophile-lipophile balance number) [3] | MSR (molar solubilization ratio), PYR (physchem) | log Km (micelle-phase/aqueous-phase partition coefficient), PYR (physchem) | MSR for benzo[a]pyrene [4] | MSR (molar solubilization ratio), BAP (physchem) | MSR (molar solubilization ratio), FA (physchem) | log Km (micelle-phase/aqueous-phase partition coefficient), BAP (physchem) | log Km (micelle-phase/aqueous-phase partition coefficient), FA (physchem) | reduction of time required for VUN 10,010 to degrade 250 mg l^−1 of pyrene ([1]; surfactant 5-10 g l^−1, presolubilized pyrene) |
| --- | --- | --- | --- | --- | --- | --- | --- | --- | --- | --- | --- | --- | --- | --- |
| Igepal CA-630 | inhibited | inhibited pyrene degradation; also recorded: inhibitory to pyrene degradation | higher CMC values in BSM | 0.1078 mM | some inhibition | 13.0 | 0.0326 | 5.39 | – | – | – | – | – | – |
| Triton X-100 | – | enhanced | higher CMC values in distilled water | 0.2320 mM | – | 13.5 | 0.0352 | 5.84 | 1.5×10^−2 | 0.0113 | 0.0508 | 7.49 | 5.64 | – |
| Tyloxapol | significantly improved | enhanced | higher CMC values in distilled water | 0.0167 mM | – | 12.9 | 0.0820 | 6.60 | – | – | – | – | – | 50% |
